The target of one assay is T1, human P2X2/3 receptor (Homo sapiens, UniProt P56373+Q9UBL9).
T1 construct: expressed in transfected cells; host or cells: CHO-K1
T1 sequence (P56373 1-397): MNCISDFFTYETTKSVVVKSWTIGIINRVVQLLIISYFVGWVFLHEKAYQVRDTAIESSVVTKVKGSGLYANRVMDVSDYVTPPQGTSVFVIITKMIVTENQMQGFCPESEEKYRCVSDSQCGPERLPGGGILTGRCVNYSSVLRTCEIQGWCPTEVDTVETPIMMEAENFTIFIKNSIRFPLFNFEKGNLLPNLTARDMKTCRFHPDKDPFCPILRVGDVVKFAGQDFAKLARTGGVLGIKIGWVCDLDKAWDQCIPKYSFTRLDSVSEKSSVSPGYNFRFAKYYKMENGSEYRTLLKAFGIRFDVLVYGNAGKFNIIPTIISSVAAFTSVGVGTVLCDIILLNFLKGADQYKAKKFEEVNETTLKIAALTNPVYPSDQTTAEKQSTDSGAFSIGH
T1 sequence (Q9UBL9 1-471): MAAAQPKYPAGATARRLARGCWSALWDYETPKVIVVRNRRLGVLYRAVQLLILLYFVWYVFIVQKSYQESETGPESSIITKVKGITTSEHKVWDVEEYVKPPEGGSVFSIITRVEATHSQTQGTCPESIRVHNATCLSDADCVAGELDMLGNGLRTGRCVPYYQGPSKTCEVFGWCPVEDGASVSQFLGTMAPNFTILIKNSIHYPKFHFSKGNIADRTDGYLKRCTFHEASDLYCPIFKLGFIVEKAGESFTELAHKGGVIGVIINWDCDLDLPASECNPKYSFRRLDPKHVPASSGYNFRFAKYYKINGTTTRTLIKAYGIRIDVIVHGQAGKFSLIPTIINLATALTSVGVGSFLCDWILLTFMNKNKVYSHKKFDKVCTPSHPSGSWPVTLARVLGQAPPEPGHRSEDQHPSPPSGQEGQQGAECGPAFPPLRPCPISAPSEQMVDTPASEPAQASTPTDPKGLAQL
Description: Calcium fluorescence measurement: human P2X2/3 receptor activity inhibition (CHO-K1 cells, Fluo-8 NoWash, […]). It counts as cell-based. Particulars: for IC50: CHO-K1 cells expressing human P2RX2/X3 channel, 10µM α,β-Met-ATP, read-out: h-P2X2/3 IC50; for Selectivity: ratio of IC50 of P2X2/3/ P2X3 receptors. The procedure:
Determination of human P2X2/3 receptor activity inhibition
The assay for the human P2RX2/X3 has been evaluated by the screening instrumentation using the […] as reader and the FLUO8-NoWash dye as fluorescent readout for calcium detection.
CHO-K1 cells recombinantly expressing the human P2RX2/X3 channel are maintained in DMEM F-12 (1:1) mixture (LONZA cat. n°: BE04-687F/U1) supplemented with 5 mL of 100 mM Sodium Pyruvate (LONZA cat. n° BE13-115E), 25 mL of 7.5% Sodium Bicarbonate (LONZA cat. n° BE17-613E), 6.5 mL of 1M Hepes (LONZA cat. n° BE17-737E), 5 mL of 100X Penicillin/Streptomycin mixture (LONZA cat. n° DE17-602E) and 50 mL of Fetal Bovine Serum (Sigma cat. n° F7524), 5 µg/mL Puromycin dihydrochloride (Sigma cat. n° P9620) and 1 mg/ml G418 disulfate salt (Sigma cat. n° G8168).
Cells were seeded into black-walled clear bottom 384 Multiwell plates at a density of 10.000 cells/well in complete medium. After 24 h the culture medium was replaced with 20 µL/well of Fluo-8 NoWash calcium sensitive dye (AAT Bioquest cat. n° 36316) diluted in Tyrode's buffer (Standard Tyrode's buffer: in house solution, 130 mM NaCl, 5 mM KCl, 2 mM CaCl2, 5 mM NaHCO3, 1 mM MgCl2, 20 mM HEPES, pH 7.4).
The plates were incubated for 1 hours at 37°C and injected with 10 µL/well of test compounds at 3X concentration in Tyrode's buffer with the […]. After 5 minutes a second injection of 15 µL/well of 10µM α,β-Met-ATP in Tyrode's buffer (α,β-Met-ATP: from Tocris cat. n° 3209) was performed and the signal of the emitted fluorescence was recorded by […] (Molecular Devices).
The selectivity is expressed as the ratio of IC50 of P2X2/3/ P2X3 receptors. Table 8: Human P2X3 and h-P2X2/3 receptor antagonist activity for selected compounds of the invention.

The target of the next assay is T2, human P2X3 receptor (Homo sapiens, UniProt P56373).
T2 construct: expressed in transfected cells; host or cells: CHO-K1
T2 sequence (P56373 1-397): T1 sequence (P56373 1-397)
Description: Calcium luminescence measurement: human P2X3 receptor activity inhibition (CHO-K1 cells, photoprotein readout, FLEXSTATION). Particulars: CHO-K1 cells co-expressing human P2X3 and Ca2+ sensitive photoprotein; agonist α,β-Met-ATP; read-out: h-P2X3 IC50. The format is cell-based. The procedure: Determination of human P2X3 receptor activity inhibition
The assay for the human purinergic P2RX3 receptor has been adapted to the internal screening instrumentation using the FLEXSTATION as reader and a photoprotein as luminescent readout. The assay consists of CHO-K1 cells recombinantly co-expressing the human P2rx3 receptor and a Ca^2+ sensitive photoprotein. Cells are maintained in DMEM F-12 (1:1) mixture (LONZA cat. n° BE04-687F/U1) supplemented with 9 mL of 100 mM Sodium Pyruvate (LONZA cat. n° BE13-115E), 29 mL of 7.5% Sodium Bicarbonate (LONZA cat. n° BE17-613E), 5.5 mL of 1 M Hepes (LONZA cat. n° BE17-737E), 5 mL of 100X Penicillin/Streptomycin mixture (LONZA cat. n° DE17-602E) and 50 mL of Fetal Bovine Serum (Sigma cat. n° F7524), 1 mg/mL G418 disulfate salt (Sigma cat. n° G8168) and 5 µg/ml Puromycin dihydrochloride (Sigma cat. n° P9620). Standard propagation conditions consist of seeding in a P75 flask twice a week, recovering about 20×10^6 cells, corresponding to about 80% confluency. Cells were seeded into black-walled clear bottom 96 well plates at a density of 40000 cells/well in a complete medium. After 24 h the culture medium was replaced with 200 µL/well of coelenterazine in Tyrode's buffer (Standard Tyrode's buffer: in house solution, 130 mM NaCl, 5 mM KCl, 2 mM CaCl2, 5 mM NaHCO3, 1 mM MgCl2, 20 mM HEPES, pH 7.4). Coelenterazine was purchased from BIOSYNTH (cat. n° C-7001). 10 mM stock solution was prepared in DMSO and glutathione and stored at -20° C. The plates were incubated for 4 hours at 37°C, and injected with 10 µL/well of test compounds at 25X concentration in Tyrode's buffer. After 4 minutes a second injection of 50 µL/well of 5X α,β-Met-ATP in Tyrode's buffer (α,β-Met-ATP: from Tocris (cat. n° 3209), was dissolved at 100 mM in water and stored in aliquots at -20°C) was performed and the signal of the emitted luminescence was recorded by FLEXSTATION III (Molecular Devices). […]
The inhibition curves of the tested compounds at cloned P2X3 receptor were determined by nonlinear regression analysis using software Prism 5.0 (Graphpad, San Diego, CA). The IC50 values and pseudo-Hill slope coefficients were estimated by the program.

For `CC(C)C1CN2C(=O)N(Cc3ccc(Cl)cc3)c3cc(N4CCOCC4)cnc3C2=N1` (racemic) [Example 9, 6-[(4-Chlorophenyl)methyl]-8-(morpholin-4-yl)-2-(propan-2-yl)-2,6-dihydroimidazo[1,2-c]pyrido[2,3-e]pyrimidin-5(3H)-one], the IC50 is 7.41 µM at human P2X2/3 receptor and 0.167 µM at human P2X3 receptor. The Selectivity at human P2X2/3 receptor is on record as 44.

As for `COC(C)(C)C1CN2C(=O)N(Cc3ccc(Cl)cc3)c3cc(N4CCOCC4)cnc3C2=N1` (stereo not drawn) [Example 5, 6-(4-Chlorobenzyl)-2-(2-methoxypropan-2-yl)-8-(morpholin-4-yl)-2,6-dihydroimidazo[1,2-c]pyrido[2,3-e]pyrimidin-5(3H)-one], at human P2X2/3 receptor, the IC50 was determined as 19 µM and the Selectivity is reported as 170. For the same compound, at human P2X3 receptor, the IC50 came out at 0.111 µM.

Consider `CC(C)C1CN2C(=O)N(CC(=O)Nc3ccc(F)cn3)c3cc(N4CCOCC4)cnc3C2=N1` (stereo not drawn) [Example 6, N-(5-Fluoropyridin-2-yl)-2-[8-(morpholin-4-yl)-5-oxo-2-(propan-2-yl)-2,3-dihydroimidazo[1,2-c]pyrido[2,3-e]pyrimidin-6(5H)-yl]acetamide], for which, at human P2X2/3 receptor, the IC50 is 0.221 µM and the Selectivity amounted to 6.5. Moreover, on human P2X3 receptor, the IC50 is 0.0335 µM.

As to `CC(C)(CO)C1CN2C(=O)N(Cc3ccc(Cl)cc3)c3cc(N4CCOCC4)nnc3C2=N1` (stereo not drawn) [Example 17, 5-[(4-Chlorophenyl)methyl]-9-(1-hydroxy-2-methylpropan-2-yl)-3-(morpholin-4-yl)-8,9-dihydroimidazo[1',2':1,6]pyrimido[5,4-c]pyridazin-6(5H)-one], on human P2X2/3 receptor, the IC50 is more than 30 µM and the Selectivity is on record as more than 722. For the same compound, the IC50 on human P2X3 receptor is 0.0415 µM.

For `COC(C)(C)C1CN2C(=O)N(Cc3ccc(Cl)cc3)c3cc(N4CCOCC4)nnc3C2=N1` (stereo not drawn) [Example 18, 5-[(4-Chlorophenyl)methyl]-9-(2-methoxypropan-2-yl)-3-(morpholin-4-yl)-8,9-dihydroimidazo[1',2':1,6]pyrimido[5,4-c]pyridazin-6(5H)-one], the figures for the IC50 at human P2X2/3 receptor and on human P2X3 receptor were more than 30 µM and 0.0464 µM, respectively. Further, the Selectivity on human P2X2/3 receptor is recorded as more than 646.

On to `CC(C)(O)C1CN2C(=O)N(Cc3ccc(Cl)cc3)c3cc(N4CCOCC4)nnc3C2=N1` (stereo not drawn) [Example 19, 5-[(4-Chlorophenyl)methyl]-9-(2-hydroxypropan-2-yl)-3-(morpholin-4-yl)-8,9-dihydroimidazo[1',2':1,6]pyrimido[5,4-c]pyridazin-6(5H)-one], for which, on human P2X2/3 receptor, the IC50 is more than 30 µM and the Selectivity was more than 961. The IC50 on human P2X3 receptor was found to be 0.0312 µM.

Turning to `COc1ccc(CN2C(=O)N3C(=NC(=O)C3C(C)(C)C)c3ncc(N4CCOCC4)cc32)cc1` (stereo not drawn) [Example 20, 3-tert-Butyl-6-[(4-methoxyphenyl)methyl] -8-(morpholin-4-yl)imidazo[1,2-c]pyrido[2,3-e]pyrimidine-2,5(3H,6H)-dione], at human P2X2/3 receptor, the IC50 turned out to be 28.5 µM and the Selectivity came to 249. The IC50 on human P2X3 receptor turned out to be 0.114 µM.

As to `CC(C)(C)C1C(=O)N=C2c3ncc(N4CCOCC4)cc3N(Cc3ccc(Cl)cc3)C(=O)N21` (stereo not drawn) [Example 21], on human P2X2/3 receptor, the IC50 was found to be 3.43 µM and the Selectivity is 51. In addition, the IC50 on human P2X3 receptor was determined as 0.067 µM.

On to `CC(C)C1C(=O)N=C2c3ncc(N4CCC(O)CC4)cc3N(Cc3ccc(Cl)cc3)C(=O)N21` (stereo not drawn) [Example 26, 6-[(4-Chlorophenyl)methyl]-8-(4-hydroxypiperidin-1-yl)-3-(propan-2-yl)imidazo[1,2-c]pyrido[2,3-e]pyrimidine-2,5(3H,6H)-dione], for which the IC50 on human P2X2/3 receptor is more than 30 µM; at human P2X3 receptor, 0.115 µM. Moreover, the Selectivity at human P2X2/3 receptor is reported as more than 260.

`COc1ccc(Cn2c(=O)n3c(C(C)(C)C)nnc3c3ncc(N4CCOCC4)cc32)cc1` [Example 29, 3-tert-Butyl-6-(4-methoxybenzyl)-8-(morpholin-4-yl)pyrido[2,3-e][1,2,4]triazolo[4,3-c]pyrimidin-5(6H)-one]: on human P2X2/3 receptor, the IC50 came out at 19.7 µM and the Selectivity was determined as 566. Moreover, the IC50 at human P2X3 receptor worked out at 0.0348 µM.

Regarding `CC(C)(C)c1nnc2c3ncc(N4CCOCC4)cc3n(Cc3ccc(Cl)cc3)c(=O)n12` [Example 30, 3-tert-Butyl-6-[(4-chlorophenyl)methyl]-8-(morpholin-4-yl)pyrido[2,3-e][1,2,4]triazolo[4,3-c]pyrimidin-5(6H)-one], on human P2X2/3 receptor, the IC50 is more than 30 µM and the Selectivity is on record as more than 466. Moreover, the IC50 at human P2X3 receptor was determined as 0.0643 µM.

Consider `COC(C)(C)c1nnc2c3nnc(N4CCN(C(C)=O)CC4)cc3n(Cc3ccc(Cl)cc3)c(=O)n12` [Example 47, 8-(4-Acetylpiperazin-1-yl) -6-[(4-chlorophenyl)methyl]-3-(2-methoxypropan-2-yl)[1,2,4]triazolo[4',3': 1,6]pyrimido[5,4-c]pyridazin-5(6H)-one], for which the IC50 on human P2X3 receptor is 0.242 µM.

Consider `CC(C)(C)c1nc2c3ncc(N4CCCC(O)C4)cc3n(Cc3ccc(Cl)cc3)c(=O)n2n1` (stereo not drawn) [Example 52, 2-tert-Butyl-6-[(4-chlorophenyl)methyl]-8-(3-hydroxypiperidin-1-yl)pyrido[2,3-e][1,2,4]triazolo[1,5-c]pyrimidin-5(6H)-one], for which the IC50 on human P2X3 receptor stood at 0.215 µM.

Turning to `CC(C)(C)Cc1nc2c3nnc(N4CCOCC4)cc3n(Cc3ccc(Cl)cc3)c(=O)n2n1` [Example 54, 5-[(4-Chlorophenyl)methyl]-9-(2,2-dimethylpropyl)-3-(morpholin-4-yl)[1,2,4]triazolo[1',5':1,6]pyrimido[5,4-c]pyridazin-6(5H)-one], the IC50 at human P2X3 receptor worked out at 0.0249 µM.

Values taken from patent EP4389746A2, “P2X3 RECEPTOR ANTAGONISTS” (Recordati Industria Chimica E Farmaceutica SPA, priority 2022, dated 2024).
